Measured values: patent publication US11058700B2, “Macrocyclic lactones and uses thereof as modulators of purinergic receptors” (City of Hope, priority 2015, dated 2021)

Columns and labels:
[1] = test system: breast (MCF7), prostate (DU-145), head and neck (A253), and ovarian (SKOV3) cancer cells; experiment: Killing of resistant human cancer cell lines by Ivermectin and ATP; assay type: cell-based; details: Ivermectin 16 μM, exogenous ATP 3 mM
Protocol: FIGS. 5A-5E. CaMKII-independent P2X7-mediated killing. FIG. 5A: qPCR showing the extent of gene knockdown in 4T1.2 cells transfected with shRNA targeting the P2X7 receptor versus non-targeting (NT) control (left panel). […] One million wt, shRNA(NT) and shRNA(P2X7) 4T1.2 cells were plated and incubated for 48 h before evaluation of cell numbers and viability. FIG. 5B: P2X7 knockdown cells are more resistant to ATP and the ATP/IVM combo. 4T1.2 cells were treated for 24 h with 1-3 mM ATP, 6-10 μM Ivermectin, or combinations of ATP and Ivermectin. P2X7 knockdown suppresses the synergy between Ivermectin and high dose ATP, as shown by calculation of combination index (CI) values, see Table 2. FIG. 5C: P2X7 knockdown cells are resistant to ATP/Ivermectin induced membrane permeabilization (Asterisk (*) indicates p<0.05). […] FIG. 5E: Comparison of the protective effects of P2X7, CaMKII, and NADPH oxidases inhibition in short-term (4 h, 32 μM IVM) and long-term (24 h, 12 μM IVM) exposure of 4T1.2 cells to Ivermectin. Asterisk (*) indicates p<0.05 relative to Ivermectin alone controls.
Cell viability. […] Following treatment the plates were washed once with PBS and cell viability was measured using the acid phosphatase assay. […] Absorption at 405 nm was measured within 10 min using a multi-well plate reader. Mode of cell death and viability of cells in suspension was evaluated using flow cytometry. […]

[2] = test system: 4T1.2 cells; experiment: Colony assay, 4T1.2 cells seeded at 100 cells/well, colonies counted after a week; assay type: cell-based, mouse; details: extended exposure time (Ivermectin during the entire duration of the assay)
Protocol: FIGS. 1A-1H. Ivermectin kills breast cancer cells through a mixed apoptotic and necrotic mechanism. FIG. 1A: Mouse (4T1.2) and human (MDA-MB-231) TNBC cells manifest similar sensitivity to Ivermectin. Viability of cells treated with various doses of Ivermectin for 24 h. FIG. 1B: Extended exposure time reduces IC50 values to as low as 2 μM. 4T1.2 cells were seeded at 100 cells/well and individual colonies were counted after a week. Cancer cells were exposed to Ivermectin during the initial 24 h or during the entire duration of the assay. FIG. 1C: MDA-MB-231 breast cancer cells manifest higher sensitivity to Ivermectin compared to normal non-transformed human foreskin fibroblasts (HFFs). FIG. 1D: Flow cytometry analysis showing that cell death proceeds through two distinct pathways: a directly necrotic 7AAD-single positive or Annexin V/PS-single positive apoptotic pathway. FIG. 1E: Kinetics of necrotic versus apoptotic killing of 4T1.2 breast cancer cells. FIG. 1F: Ivermectin-induced cell death can be reversed by inhibition of various controlled cell death pathways. 4T1.2 cells were treated for 4 h with 32 μM Ivermectin in the presence of μM concentrations of Z-vad-fmk, Necrostatin-1, Digoxin, or VX-765, as indicated. FIG. 1G: Activation of Caspase-1, Caspase-3 and cleavage of PARP in 4T1.2 and MDA-MB-231 cells treated with 32 μM for 4 h. […]

[3] = test system: 4T1.2 cells; experiment: Cell viability (acid phosphatase assay) of cancer cells treated with Ivermectin; assay type: cell-based, mouse; details: mouse and human breast cancer cells
[4] = test system: Calreticulin (CRT) and Mannose-6 Phosphate receptor; experiment: Surface exposure of CRT and Mannose-6 Phosphate receptor; assay type: cell-based, mouse, human
Protocol: FIGS. 6A-6E. Ivermectin induces autophagy. FIG. 6A: Ivermectin induces autophagy in breast cancer cells. MDA-MB-231 GFL-LC3 cells were treated with different doses of Ivermectin for 24 h and formation of green fluorescent puncta was evaluated by confocal fluorescence microscopy. FIG. 6B: Western blot confirming the induction of autophagy in both murine and human breast cancer cells, as evidenced by LC3 lipidation and autophagic degradation of p62(SQSTM1). […] MDA-MB-231 cells (triplicates) were treated with different doses of Ivermectin for up to 24h and surface stained with antibody-specific for the human M6P receptor versus isotype control. Similarly, 4T1.2 and MB231 cells were treated with different doses of Ivermectin for 4-24 h, and were stained with an antibody specific for both human and mouse CRT versus isotype control. Mean fluorescent intensity (MFI) values and ratios versus isotype control were calculated after gating on live/membrane-intact cells. […]
Surface exposure of CRT and Mannose-6 Phosphate receptor. Surface exposure of Calreticulin (CRT) and Mannose-6 Phosphate receptor (CD220) was evaluated by staining with monoclonal antibodies specific for CRT (unconjugated, specific for both mouse and human, Abcam ab22683, and PE-conjugated, specific for human only, Abcam, ab83220) and CD220 (Thermo […]

CC[C@H](C)[C@H]1O[C@]2(CC[C@@H]1C)C[C@@H]1C[C@@H](C/C=C(\C)[C@@H](O[C@H]3C[C@H](OC)[C@@H](O[C@H]4C[C@H](OC)[C@@H](O)[C@H](C)O4)[C@H](C)O3)[C@@H](C)/C=C/C=C3\CO[C@@H]4[C@H](O)C(C)=C[C@@H](C(=O)O1)[C@]34O)O2 [Ivermectin]
killing by combination of Ivermectin and ATP [1]: synergistically kill | IC50 [2]: ≥ 2000 nM | Ivermectin doses giving rapid killing [3]: ≥ 8 µM | surface exposure of Calreticulin (CRT) ([4]; 4T1.2 and MB231 cells, 4-24 h): does not significantly impact surface CRT | plasma membrane exposure of M6P receptors ([4]; MDA-MB-231 cells, up to 24 h): up-regulate plasma membrane exposure of mannose-6-phosphate (M6P) receptors
